Results on 27 compounds are retold here after patent US20250230138A1, “COMPOUNDS HAVING A T-STRUCTURE FORMED BY AT LEAST FOUR CYCLES FOR USE IN THE TREATMENT OF CANCER AND OTHER INDICATIONS” (TheRas, Inc., priority 2022, published 2025).

SMILES strings stand for the structures. Read-outs that look alike come from different tables or passages of the source. Bounds are passed on as bounds.

A word on the IC50: it is the concentration needed to halve the response being measured.

Experiment [1] concerns the target Cys242 in human PIK3CA (157-299) (Homo sapiens (Human), UniProt P42336). In words: Covalent modification assay using MALDI-TOF MS. Format: biochemical. The settings on record: 4 h reaction time point. Put shortly: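 Covalent adduct formation was read by linear-mode MALDI-TOF with sinapinic acid matrix, reported as modified-protein peak height divided by total protein peak heights. Reactions held PIK3CA (157-299) at 1 or 3.33 μM in HEPES/NaCl/MgCl2 buffer, pH 7.3, sampled after 15 min to 4 h at room temperature.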

The next experiment deals with pAKT in BT474 cells. In words: Cell-based pAKT HTRF assay in BT474 cells. The settings on record: BT474 cells, 4 hr incubation, read-out: pAKT inhibition IC50 in BT474 cells. The method, boiled down: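 Compound titration: 3 μM downward in 3-fold steps, nine points, 4 hr on cells. Detection: lysis, then d2 plus Eu Cryptate antibody mix, room-temperature incubation of 4–24 h, and time-resolved fluorescence read at 615 nm.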

The mark [2] stands for this setting: 3.33 μM protein target, 1:7.5 protein to compound ratio (compounds 1-852).
[3] abbreviates: 1 μM protein target, 1:5 protein to compound ratio (compounds 853-1279).

Sequence of Cys242 in human PIK3CA (157-299) (P42336 157-299): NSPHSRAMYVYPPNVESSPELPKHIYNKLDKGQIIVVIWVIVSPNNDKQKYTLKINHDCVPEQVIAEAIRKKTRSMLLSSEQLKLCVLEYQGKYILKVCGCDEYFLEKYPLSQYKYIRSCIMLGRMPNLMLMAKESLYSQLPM

`C=CC(=O)N1CCc2ncc(-c3nc(-c4cnn(CC(C)(C)O)c4)c4ccsc4c3-c3c(F)cc(F)cc3OC(C)C)cc2C1` [Compound 345]: the “% of modification” value in experiment [1] (setting [2]) is listed as “A (percent of modification of PIK3CA protein ≥75%)”. Also, in the experiment on pAKT in BT474 cells (Compounds 10-999), the IC50 is under 100 nM.

For the compound `C=CC(=O)N1CCn2nc(-c3nc(-c4ccnc(N)c4)c4ccsc4c3-c3ccc(F)cc3OCCOC)nc2C1` [Compound 193], the “% of modification” value in experiment [1] (setting [2]) is “A (percent of modification of PIK3CA protein ≥75%)”. The 50% inhibitory concentration (IC50) with pAKT in BT474 cells (Compounds 10-999) was under 100 nM.

On to `C=CC(=O)N1CCn2nc(-c3nc(-c4ccc5c(cnn5C)c4)c4ccsc4c3-c3c(F)cc(F)cc3OCC(C)O)cc2C1C` (stereo not drawn) [Compound 767], for which the “% of modification” value in experiment [1] (setting [2]) is reported as “A (percent of modification of PIK3CA protein ≥75%)”. The IC50 in the experiment on pAKT in BT474 cells (Compounds 10-999) is under 100 nM.

`C=CC(=O)N1CCn2nc(-c3nc(-c4ccc5c(c4)CCN(C)C5)c4ccsc4c3-c3c(F)cc(F)cc3OCCO)cc2C1C` (stereo not drawn) [Compound 533]: the “% of modification” value in experiment [1] (setting [2]) was “A (percent of modification of PIK3CA protein ≥75%)”. Further, in the experiment with pAKT in BT474 cells (Compounds 10-999), the 50% inhibitory concentration (IC50) was under 100 nM.

Take `C/C=C/C(=O)N1CC(n2cc(-c3nc(-c4ccc5c(c4)CCNC5)c4ccsc4c3-c3ccc(F)cc3OC)cn2)C1` [Compound 129]: the “% of modification” value in experiment [1] (setting [2]) is recorded as “D (percent of modification <25%)”. For the same compound, the IC50 with pAKT in BT474 cells (Compounds 10-999) was over 3000 nM.

Consider `C=CC(=O)N1CCc2ccc(-c3nc(-c4cnc(N5CCN(C)CC5)nc4)c4ccsc4c3-c3c(F)cc(F)cc3OCCOC)cc2C1` [Compound 1106], for which, in experiment [1] (setting [3]), the “% of modification” value is given as “A (percent of modification of PIK3CA protein ≥75%)”. Also, the 50% inhibitory concentration (IC50) in the experiment with pAKT in BT474 cells (Compounds 1000-1279) was 100 to 1000 nM.

On to `C=CC(=O)N1CCn2nc(-c3nc(-c4cccc(OCCN(C)C)c4)c4ccsc4c3-c3c(F)cc(F)cc3OCCO)cc2C1C` (stereo not drawn) [Compound 1194], for which the “% of modification” value in experiment [1] (setting [3]) was “A (percent of modification of PIK3CA protein ≥75%)”. For the same compound, the 50% inhibitory concentration (IC50) in the experiment with pAKT in BT474 cells (Compounds 1000-1279) was under 100 nM.

As to `C=CC(=O)N1CC(n2cc(-c3nc(-c4cnn(C)c(=O)c4)c4ccsc4c3-c3ccc(F)cc3OC)cn2)C1` [Compound 183], the “% of modification” value in experiment [1] (setting [2]) was “A (percent of modification of PIK3CA protein ≥75%)”. Moreover, in the experiment on pAKT in BT474 cells (Compounds 10-999), the concentration for half-maximal inhibition (IC50) was 100 to 1000 nM.

Turning to `C=CC(=O)N1CC(n2cc(-c3nc(N4CCc5cn[nH]c5C4)c4ccsc4c3-c3ccc(F)cc3OCCOC)cn2)C1` [Compound 166], in experiment [1] (setting [2]), the “% of modification” value was “A (percent of modification of PIK3CA protein ≥75%)”. In addition, the IC50 in the experiment with pAKT in BT474 cells (Compounds 10-999) was 100 to 1000 nM.

For `C=CC(=O)N1CC(n2cc(-c3nc(-c4ccn(C)c(=O)c4)c4ccsc4c3-c3ccc(F)cc3OC)cn2)C1` [Compound 179], the “% of modification” value in experiment [1] (setting [2]) is “A (percent of modification of PIK3CA protein ≥75%)”. The IC50 in the experiment on pAKT in BT474 cells (Compounds 10-999) was under 100 nM.

On to `C=CC(=O)N1CCn2nc(-c3nc(-c4ccc5c(c4)ncn5C)c4ccsc4c3-c3c(F)cc(F)cc3OCCO)cc2[C@H]1C` [Compound 775], for which the “% of modification” value in experiment [1] (setting [2]) was “A (percent of modification of PIK3CA protein ≥75%)”. Moreover, in the experiment with pAKT in BT474 cells (Compounds 10-999), the half-inhibitory concentration (IC50) is under 100 nM.

With `C=CC(=O)N1Cc2cc(-c3nc(-c4ccc5c(c4)CNC5=O)c4ccsc4c3-c3c(F)cc(F)cc3OCCO)nn2CC1C` (stereo not drawn) [Compound 904], the “% of modification” value in experiment [1] (setting [3]) is reported as “A (percent of modification of PIK3CA protein ≥75%)”. In the experiment on pAKT in BT474 cells (Compounds 10-999), the IC50 is under 100 nM.

With `C=CC(=O)N1CCn2nc(-c3nc(-c4cncc(C#N)c4)c4ccsc4c3-c3ccc(F)cc3OC(C)C)cc2C1` [Compound 259], the “% of modification” value in experiment [1] (setting [2]) is recorded as “A (percent of modification of PIK3CA protein ≥75%)”. Also, the 50% inhibitory concentration (IC50) in the experiment with pAKT in BT474 cells (Compounds 10-999) is under 100 nM.

For `C=CC(=O)N1CC(n2cc(-c3nc(N4CCc5n[nH]c(=O)cc5C4)c4ccsc4c3-c3ccc(F)cc3OCCOC)cn2)C1` [Compound 158], the “% of modification” value in experiment [1] (setting [2]) is recorded as “A (percent of modification of PIK3CA protein ≥75%)”. The IC50 with pAKT in BT474 cells (Compounds 10-999) was 100 to 1000 nM.

Take `C=CC(=O)N1Cc2cc(-c3nc(-c4ccc5cn(C)nc5c4)c4ccsc4c3-c3c(F)cc(F)cc3OCCO)nn2C(C)C1` (stereo not drawn) [Compound 783]: the “% of modification” value in experiment [1] (setting [2]) is “A (percent of modification of PIK3CA protein ≥75%)”. In the experiment with pAKT in BT474 cells (Compounds 10-999), the half-inhibitory concentration (IC50) is under 100 nM.

Consider `C=C(F)C(=O)N1CCn2nc(-c3nc(-c4ccc5c(c4)CNC5=O)c4ccsc4c3-c3c(F)cc(F)cc3OC[C@@H](C)O)cc2C1` [Compound 517], for which, in experiment [1] (setting [2]), the “% of modification” value is “B (50%<percent of modification <75%)”. For the same compound, in the experiment with pAKT in BT474 cells (Compounds 10-999), the concentration for half-maximal inhibition (IC50) was 100 to 1000 nM.

Consider `C=CC(=O)NCc1cc(-c2nc(-c3ccc4c(c3)CCNC4)c3ccsc3c2-c2ccc(F)cc2OCCOC)ccc1OC` [Compound 74], for which, in experiment [1] (setting [2]), the “% of modification” value is given as “D (percent of modification <25%)”. For the same compound, the IC50 with pAKT in BT474 cells (Compounds 10-999) fell in the range of 1000 to 3000 nM.

For `C=CC(=O)N1CCn2nc(-c3nc(-c4ccc(C5CCCN5C)cc4)c4ccsc4c3-c3c(F)cc(F)cc3OCCOC)cc2C1C` (stereo not drawn) [Compound 1237], in experiment [1] (setting [3]), the “% of modification” value is on record as “A (percent of modification of PIK3CA protein ≥75%)”. Besides, in the experiment on pAKT in BT474 cells (Compounds 1000-1279), the 50% inhibitory concentration (IC50) is under 100 nM.

In the case of `C=CC(=O)N1CCc2ccc(-c3nc(-c4cnc5c(c4)CNC(=O)C5)c4ccsc4c3-c3c(F)cc(F)cc3OCCOC)cc2C1` [Compound 580, (S)-3-(6-(2-acryloyl-1,2,3,4-tetrahydroisoquinolin-7-yl)-7-(2,4-difluoro-6-(2-methoxyethoxy)phenyl)thieno[3,2-c]pyridin-4-yl)-5,8-dihydro-1,6-naphthyridin-7(6H)-one], the “% of modification” value in experiment [1] (setting [2]) is recorded as “A (percent of modification of PIK3CA protein ≥75%)”. In addition, in the experiment with pAKT in BT474 cells (Compounds 10-999), the IC50 is under 100 nM.

For the compound `C=C(F)C(=O)N1CCn2nc(-c3nc(-c4ccc5c(c4)CCN(C(C)C)C5)c4ccsc4c3-c3ccc(F)cc3OC(C)C)cc2C1` [Compound 294], the “% of modification” value in experiment [1] (setting [2]) is reported as “A (percent of modification of PIK3CA protein ≥75%)”. For the same compound, the IC50 with pAKT in BT474 cells (Compounds 10-999) is under 100 nM.

As for `C=CC(=O)N1CCn2nc(-c3nc(-c4cnc5c(c4)CN(CC(F)F)CC5)c4ccsc4c3-c3c(F)cc(F)cc3OCCOC)cc2C1C` (stereo not drawn) [Compound 1081], the “% of modification” value in experiment [1] (setting [3]) is reported as “A (percent of modification of PIK3CA protein ≥75%)”. In the experiment on pAKT in BT474 cells (Compounds 1000-1279), the IC50 is under 100 nM.

Turning to `C=CC(=O)N1CC(n2cc(-c3nc(-c4ncn(C)n4)c4ccsc4c3-c3ccc(F)cc3OCCOC)cn2)C1` [Compound 85], in experiment [1] (setting [2]), the “% of modification” value is “A (percent of modification of PIK3CA protein ≥75%)”. The 50% inhibitory concentration (IC50) with pAKT in BT474 cells (Compounds 10-999) lay in the range of 100 to 1000 nM.

Turning to `C=CC(=O)N1CC[C@@H](n2ccc(-c3nc(-c4cnn(C)c4)c4ccsc4c3-c3ccc(F)cc3OC(C)C)n2)C1` [Compound 329], the “% of modification” value in experiment [1] (setting [2]) was “A (percent of modification of PIK3CA protein ≥75%)”. Besides, the half-maximal inhibitory concentration (IC50) in the experiment with pAKT in BT474 cells (Compounds 10-999) was in the range of 100 to 1000 nM.

Turning to `C=CC(=O)N1Cc2cc(-c3nc(-c4ccc5cnn(C)c5c4)c4ccsc4c3-c3c(F)cc(F)cc3OCC(C)O)nn2C(C)C1` (stereo not drawn) [Compound 680], the “% of modification” value in experiment [1] (setting [2]) is “A (percent of modification of PIK3CA protein ≥75%)”. The half-maximal inhibitory concentration (IC50) in the experiment on pAKT in BT474 cells (Compounds 10-999) is under 100 nM.

As for `C=CC(=O)N1CCn2nc(-c3nc(-c4ccc5c(c4)CCN(C)C5)c4ccsc4c3-c3ccc(F)cc3OC)cc2C1` [Compound 265], the “% of modification” value in experiment [1] (setting [2]) was “A (percent of modification of PIK3CA protein ≥75%)”. Further, the IC50 in the experiment with pAKT in BT474 cells (Compounds 10-999) is under 100 nM.

Consider `C=CC(=O)N1CCn2nc(-c3nc(-c4cc5c(cc4OC)C(=O)NC5)c4ccsc4c3-c3c(F)cc(F)cc3OCCOC)cc2[C@H]1C` [Compound 1063], for which the “% of modification” value in experiment [1] (setting [3]) is listed as “A (percent of modification of PIK3CA protein ≥75%)”. Further, the IC50 in the experiment on pAKT in BT474 cells (Compounds 1000-1279) was under 100 nM.

As to `C=CC(=O)N1CCn2nc(-c3nc(-c4cccc(OCCN(C)C)c4)c4ccsc4c3-c3c(F)cc(F)cc3OCCOC)cc2C1C` (stereo not drawn) [Compound 1046], the “% of modification” value in experiment [1] (setting [3]) is “A (percent of modification of PIK3CA protein ≥75%)”. For the same compound, the IC50 in the experiment with pAKT in BT474 cells (Compounds 1000-1279) was under 100 nM.
